pEC50: −log10 of the molar value.

The source of these data is US20120214847A1, “2-[1-PHENYL-5-HYDROXY-4a-SUBSTITUTED-HEXAHYDROCYCLOPENTA[F]INDAZOL-5-YL]ETHYL PHENYL DERIVATIVES AS GLUCOCORTICOID RECEPTOR LIGANDS” (Merck Sharp & Dohme Corp., priority 2009, published 2012).

The target of this test is T1, human GR (Homo sapiens, UniProt P04150).
T1 construct: naturally expresses the human GR; endogenous in cells
T1 sequence (P04150 1-777): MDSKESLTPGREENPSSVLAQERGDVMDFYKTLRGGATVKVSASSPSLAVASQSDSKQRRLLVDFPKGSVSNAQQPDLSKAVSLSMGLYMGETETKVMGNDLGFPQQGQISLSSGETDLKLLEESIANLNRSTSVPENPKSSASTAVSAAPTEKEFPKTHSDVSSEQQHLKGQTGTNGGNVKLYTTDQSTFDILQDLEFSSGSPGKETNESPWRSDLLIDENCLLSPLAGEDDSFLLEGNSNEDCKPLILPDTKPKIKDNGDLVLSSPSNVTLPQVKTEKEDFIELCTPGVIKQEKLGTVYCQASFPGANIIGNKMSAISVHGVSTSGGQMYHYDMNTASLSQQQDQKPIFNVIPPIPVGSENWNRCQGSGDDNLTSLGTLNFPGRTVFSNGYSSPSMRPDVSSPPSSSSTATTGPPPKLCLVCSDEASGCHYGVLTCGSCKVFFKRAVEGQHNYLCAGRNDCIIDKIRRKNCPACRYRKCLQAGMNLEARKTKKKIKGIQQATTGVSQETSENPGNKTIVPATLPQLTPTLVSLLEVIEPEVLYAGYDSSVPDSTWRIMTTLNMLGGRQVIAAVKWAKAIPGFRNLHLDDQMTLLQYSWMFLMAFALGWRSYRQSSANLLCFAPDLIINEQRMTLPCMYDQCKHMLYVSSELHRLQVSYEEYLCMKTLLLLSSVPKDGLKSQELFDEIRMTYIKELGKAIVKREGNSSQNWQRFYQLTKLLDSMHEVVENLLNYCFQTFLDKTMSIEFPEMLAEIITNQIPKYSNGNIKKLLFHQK
In words: Transrepression assay (GITAR), TNFα-β-lactamase reporter in U937 cells. The class given is cell-based. The settings on record: for pEC50: IP = inflection point; for Emax: U-937, U937 cells. An excerpt:
Transrepression Assay (GITAR)
This assay assesses the ability of test compounds to control transcription from the TNFα-β-lactamase reporter gene in U937 cells, a human myelomonocytic leukemia cell line that naturally expresses the human GR. The assay measures compound dependent-repression of the TNFa promoter linked to a reporter gene.
The human U937 cells that had been stablely transfected with the TNF-a promoter driving ˜-lactamase are used for this assay. U937 cells contain an endogenous glucocorticoid receptor (GR). Cells are maintained in RPMI 1640 Growth medium (GibcoCat#11875-093) containing 25 mM HEPES, 10% FBS, 2 mM L-Glutamine, 1 mM Sodium pyruvate, 25 μg/ml Gentamicin (Gibed Cat#1571 0-064), 1:1000 2-Mercaptoethanol (Gibco Cat#21985-023) and 0.8 mg/ml G418 (Gibco Cat#10131-027). The density of the cells in the flask needs to be about 1×10^6-3×10^6/ml at the time of harvest. Usually, the cells are split to 1.2˜1.4×10^5/ml (1:10) 3 days prior to the assay. 50,000 cells/well are plated in 96 well black-walled plates the day of assay. Test compounds are added 10 J.lL/well, and cells are incubated at 37° C. for 30˜45 min. For assaying compounds, first dilute 1:10 in DMSO to make 1 mM, then further dilute 1:100 in medium to make 10× stock prior to adding to the cells. Add 50 ng/ml PMA (Sigma, cat#P8139) 10 μL/well to a final concentration 5 ng/ml, and 1 μg/ml LPS (Sigma, cat#L4130) 10 μL/well to a final concentration 100 ng/ml. Incubate cells at 370 C overnight for −18 hr. PMA is stored frozen as […] in DMSO. Dilute 1:10 in DMSO for a working stock of 10 μg/ml and store at −20° C. For assaying, dilute the 10 μg/ml working stock 1:200 in medium to make a 10× solution (50 ng/ml). Store frozen LPS at 1 mg/ml in PBS, dilute 1:1000 in medium to make 10×μg/ml) for the assay. Add 6× loading buffer (CCF2-AM) 20 μL/well, and incubate at room temperature for 70-90 min. […] The activity repressed by 100 nM dexamethasone alone is set as 100% activity.

Where [1] appears, read: activity repressed by 100 nM dexamethasone alone set as 100%.

Take `CC(C)(CO)NC(=O)c1ccccc1CC[C@]1(O)CCC2=Cc3c(cnn3-c3ccc(F)cc3)C[C@@]21C1CC1` [Example 45, 2-{2-[(4aR,5R)-4a-Cyclopropyl-1-(4-fluorophenyl)-5-hydroxy-1,4,4a,5,6,7-hexahydrocyclopenta[f]indazol-5-yl]ethyl}-N-(1-hydroxy-2-methylpropan-2-yl)benzamide]: where the note is “U937 cells”, the pEC50 was 8.05. Moreover, the Emax under setting [1] was found to be 85%.

As for `CC[C@]12Cc3cnn(-c4ccccc4)c3C=C1CC[C@@]2(O)CCc1cccc(F)c1C#N` [Example 15, 2-{2-[(4aS,5R)-4a-Ethyl-5-hydroxy-1-phenyl-1,4,4a,5,6,7-hexahydrocyclopenta[f]indazol-5-yl]ethyl}-6-fluorobenzonitrile], under “U937 cells”, the pEC50 is 6.94. Besides, the Emax under setting [1] stood at 89%.

With `CC[C@]12Cc3cnn(-c4cccnc4)c3C=C1CC[C@@]2(O)CCc1cccc(F)c1C#N` [Example 10, 2-{2-[(4aS,5R)-4a-Ethyl-5-hydroxy-1-(pyridin-3-yl)-1,4,4a,5,6,7-hexahydrocyclopenta[f]indazol-5-yl]ethyl}-6-fluorobenzonitrile], under “U937 cells”, the pEC50 was 6.95. Moreover, the Emax under setting [1] was determined as 64%.

As for `NC(=O)CNC(=O)c1ccccc1CC[C@]1(O)CCC2=Cc3c(cnn3-c3ccc(F)cc3)C[C@@]21C1CC1` [Example 47, N-(2-Amino-2-oxoethyl)-2-{2-[(4aR,5R)-4a-cyclopropyl-1-(4-fluorophenyl)-5-hydroxy-1,4,4a,5,6,7-hexahydrocyclopenta[f]indazol-5-yl]ethyl}benzamide], the pEC50 (U937 cells) was 8.05. The molecule also came in with an Emax under setting [1] of 83%.

As to `CC[C@]12Cc3cnn(-c4ccc(F)cc4)c3C=C1CC[C@@]2(O)CCc1ncccc1S(=O)(=O)C(C)C` [Example 62, (4aS,5R)-4a-Ethyl-1-(4-fluorophenyl)-5-{2-[3-(propan-2-ylsulfonyl)pyridin-2-yl]ethyl}-1,4,4a,5,6,7-hexahydrocyclopenta[f]indazol-5-ol], the pEC50 (U937 cells) is 7.92. This molecule also displayed an Emax under setting [1] of 85%.

As for `CC[C@]12Cc3cnn(-c4ccc(F)cc4)c3C=C1CC[C@@]2(O)CCc1ccccc1S(=O)(=O)C(C)C` [Example 40, (4aS,5R)-4a-Ethyl-1-(4-fluorophenyl)-5-{2-[2-(propan-2-ylsulfonyl)phenyl]ethyl}-1,4,4a,5,6,7-hexahydrocyclopenta[f]indazol-5-ol], the negative-log EC50 (pEC50) (U937 cells) is 7.42. Under setting [1], this molecule returned a maximal effect (Emax) of 83%.

`NC(=O)[C@H](F)c1c(F)cccc1CC[C@]1(O)CCC2=Cc3c(cnn3-c3ccc(F)cc3)C[C@@]21C1CC1` [Example 57, (2R)-2-(2-{2-[(4aR,5R)-4a-Cyclopropyl-1-(4-fluorophenyl)-5-hydroxy-1,4,4a,5,6,7-hexahydrocyclopenta[f]indazol-5-yl]ethyl}-6-fluorophenyl)-2-fluoroethanamide] had a pEC50 (U937 cells) of 6.97. Besides, the Emax under setting [1] was 86%.

`NC(=O)Cc1ccccc1CC[C@]1(O)CCC2=Cc3c(cnn3-c3ccc(F)cc3)C[C@@]21C1CC1` [Example 56, 2-(2-{2-[(4aR,5S)-4a-Cyclopropyl-1-(4-fluorophenyl)-5-hydroxy-1,4,4a,5,6,7-hexahydrocyclopenta[f]indazol-5-yl]ethyl}phenyl)acetamide]: for the setting “U937 cells”, the pEC50 was 7.02. This molecule yielded a maximal effect (Emax) under setting [1] of 78%.

In the case of `CC[C@]12Cc3cnn(-c4ccc(F)cc4)c3C=C1CC[C@@]2(O)CCc1ccc(F)cc1C(N)=O` [Example 8, 2-{2-[(4aS,5R)-4a-Ethyl-1-(4-fluorophenyl)-5-hydroxy-1,4,4a,5,6,7-hexahydrocyclopenta[f]indazol-5-yl]ethyl}-5-fluorobenzamide], the negative-log EC50 (pEC50) (U937 cells) is 7.05. In addition, the Emax under setting [1] was 88%.

Consider `CC[C@]12Cc3cnn(-c4ccc(F)cc4)c3C=C1CC[C@@]2(O)CCc1ccccc1S(=O)(=O)CC` [Example 51, (4aS,5R)-4a-Ethyl-5-{2-[2-(ethylsulfonyl)phenyl]ethyl}-1-(4-fluorophenyl)-1,4,4a,5,6,7-hexahydrocyclopenta[f]indazol-5-ol], for which the pEC50 (U937 cells) is 7.19. This molecule returned an Emax under setting [1] of 83%.

The molecule `CC[C@]12Cc3cnn(-c4ccc(F)cc4)c3C=C1CC[C@@]2(O)CC(O)c1ncccc1F` (stereo partly drawn) [Example 76, (4aS,5R)-4a-Ethyl-1-(4-fluorophenyl)-5-[2-(3-fluoropyridin-2-yl)-2-hydroxyethyl]-1,4,4a,5,6,7-hexahydrocyclopenta[f]indazol-5-ol] showed a pEC50 (U937 cells) of 6.56. This molecule yielded an Emax under setting [1] of 64%.

With `CC[C@]12Cc3cnn(-c4ccccc4)c3C=C1CC[C@@]2(O)CC(O)c1ccccn1` (single isomer, unassigned) [Example 67a], for the setting “U937 cells”, the pEC50 was 6.66. Further, the Emax under setting [1] was 54%.

For the molecule `CS(=O)(=O)c1ccccc1CC[C@]1(O)CCC2=Cc3c(cnn3-c3ccc(F)cc3)C[C@@]21C1CC1` [Example 58, (4aR,5R)-4a-Cyclopropyl-1-(4-fluorophenyl)-5-{2-[2-(methylsulfonyl)phenyl]ethyl}-1,4,4a,5,6,7-hexahydrocyclopenta[f]indazol-5-ol], the pEC50 (U937 cells) is 8.30. Moreover, the Emax under setting [1] stood at 88%.

Where the note is “U937 cells”, `CC[C@]12Cc3cnn(-c4cccnc4)c3C=C1CC[C@@]2(O)CCc1ccccc1C(N)=O` [Example 13, 2-{2-[(4aS,5R)-4a-Ethyl-5-hydroxy-1-(pyridin-3-yl)-1,4,4a,5,6,7-hexahydrocyclopenta[f]indazol-5-yl]ethyl}benzamide] had a pEC50 of 6.79. Under setting [1], this molecule came in with an Emax of 76%.

With `CC[C@]12Cc3cnn(-c4cccnc4)c3C=C1CC[C@@]2(O)CCc1ccccc1C#N` [Example 5, 2-{2-[(4aS,5R)-4a-Ethyl-5-hydroxy-1-(pyridin-3-yl)-1,4,4a,5,6,7-hexahydrocyclopenta[f]indazol-5-yl]ethyl}benzonitrile], the pEC50 (U937 cells) is 7.51. In addition, the Emax under setting [1] stood at 80%.

Regarding `CC[C@]12Cc3cnn(-c4ccc(F)cc4)c3C=C1CC[C@@]2(O)CC(O)c1ncccc1F` (stereo partly drawn) [Example 77, (4aS,5R)-4a-Ethyl-1-(4-fluorophenyl)-5-[2-(3-fluoropyridin-2-yl)-2-hydroxyethyl]-1,4,4a,5,6,7-hexahydrocyclopenta[f]indazol-5-ol], the pEC50 (U937 cells) was 6.79. Also, the “Transrepression U937 Cells GITAR Emax (%)” value (U937 cells, activity repressed by 100 nM dexamethasone alone set as 100%) was 60%.

Where the note is “U937 cells”, `O=C(NC1(CO)CC1)c1ccccc1CC[C@]1(O)CCC2=Cc3c(cnn3-c3ccc(F)cc3)C[C@@]21C1CC1` [Example 46, 2-{2-[(4aR,5R)-4a-Cyclopropyl-1-(4-fluorophenyl)-5-hydroxy-1,4,4a,5,6,7-hexahydrocyclopenta[f]indazol-5-yl]ethyl}-N-[1-(hydroxymethyl)cyclopropyl]benzamide] showed a pEC50 of 8.15. In addition, the Emax under setting [1] is 90%.

Regarding `NC(=O)c1ccccc1CC[C@]1(O)CCC2=Cc3c(cnn3-c3cccc(F)c3)C[C@@]21C1CC1` [Example 7, 2-{2-[(4aR,5R)-4a-Cyclopropyl-1-(3-fluorophenyl)-5-hydroxy-1,4,4a,5,6,7-hexahydrocyclopenta[f]indazol-5-yl]ethyl}benzamide], the negative-log EC50 (pEC50) (U937 cells) is 6.84. Under setting [1], this molecule had an Emax of 67%.

On to `OC(C[C@]1(O)CCC2=Cc3c(cnn3-c3ccc(F)cc3)C[C@@]21C1CC1)c1ccccn1` (stereo partly drawn) [Example 78, (4aR,5R)-4a-Cyclopropyl-1-(4-fluorophenyl)-5-[2-hydroxy-2-(pyridin-2-yl)ethyl]-1,4,4a,5,6,7-hexahydrocyclopenta[f]indazol-5-ol], for which the pEC50 (U937 cells) was 6.67. The Emax under setting [1] was determined as 49%.

The term pEC50 denotes the EC50 on a negative log10 scale, so that one unit is a factor of ten. High values mean a low EC50, low ones a high EC50. What is called Emax is the greatest response seen or fitted, relative to the assay's reference.
